# From patent publication US12568991B2, “Method for increasing the solubility and stability of organic compositions” (GLANBIA DAIRY NUTRITION LIMITED, priority 2017, dated 2026)
# Assays:
# [1] = type: physicochemical; conditions: pH 7
# Description: Creatine Formulation: A solution of surfactants was made by combining soy lecithin with 48-98% acetone insolubility (3.1 to 9.9 g/100 g as in dispersion or 9.2 to 16.9 g/100 g as in powder) in water (pH 7.0), with maltodextrin MD040 (Maltrin®, Grain Processing Corporation, 4.9-10.2 g/100 g as in dispersion or 12.4-17.7 g/100 g as in powder). Then the micronized (200 Mesh size or 70-80 μm) creatine monohydrate (23.7-40.2 g/100 g as in dispersion or 65.2-79.3 g/100 g as in powder), along with Alpha cyclodextrin (Cavamax®, Wacker Chemie AG, 0-0.26 g/100 g as in dispersion or 0-0.4 g/100 g as in powder), was added to the above solution of surfactants. After premixing the dispersion, it was run through the homogenizer at 500 psi/34 bar, 1 pass. The dispersion thus formed was heated to a pasteurization temperature of 72° C., for 30 min. Finally, this dispersion was spray dried, with TInlet=220-230° C. and TOutlet=92-100° C. Creatine shelf stability was evaluated at pH 3.3-7.0.
# For the shelf-stability study, the corresponding spray-dried powders produced from the slurry were used for determining the chemical stability of limited-solubility organic compounds either in a neutral pH (6.8-7.0) drink or an acidic pH (3.3-3.7) drink formula. For this determination, the limited-solubility organic compound-containing beverages were prepared at their respective pHs, using spray-dried powder. […]
# [2] = individuals who have high cholesterol; cited from earlier work
SMILES,"creatine degradation curve (y=% creatine levels, after (x) number of days) [1]",reduction of cholesterol [2]
CN(CC(=O)O)C(=N)N.O [creatine monohydrate],y=48.294e^−0.024x,–
CN(CC(=O)O)C(=N)N [creatine],–,up to 15%
